# Experimental data published in the supplement of paper PMC10307832.
# Assays:
# Assay in all cases: relative viability (nuclei count vs DMSO), 5 days (fraction); higher = more cells survive
# [1] = compound: CC1=CC(=CC=C1)NC2=NC(=CS2)C3=CC=NC=C3 + CC1(C)CCC(c2ccc(Cl)cc2)=C(CN2CCN(c3ccc(C(=O)NS(=O)(=O)c4ccc(N[C@H](CCN5CCOCC5)CSc5ccccc5)c(S(=O)(=O)C(F)(F)F)c4)cc3)CC2)C1 [Navitoclax] (partner 0.5 µM)
# How it was run: (§1)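 Lung cancer cell lines were seeded in 1536-well plates and dosed by pin tool the next day, with either a single drug or a fixed anchor-drug dose combined with five library-drug doses (not always all listed) spaced in √10 steps. Five days later, one step fixed the cells and stained their nuclei (final 0.05% Triton X-100, 1% formaldehyde, 1 ug/ml Hoechst), and nuclei were counted on 4× images. Relative viability is the nuclei count in treated wells divided by the count in vehicle wells, and each value is the median of duplicate plates.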
# [2] = compound: CC1=CC(=CC=C1)NC2=NC(=CS2)C3=CC=NC=C3 + N=C(N)NC(=N)NCCc1ccccc1 [Phenformin] (partner 250 µM)
# How it was run: as §1
# [3] = compound: Cc1ccc(NC(=O)c2ccc(CN3CCN(C)CC3)cc2)cc1Nc1nc(-c2cccnc2)cs1 [Masitinib] + CCNC(=O)c1noc(-c2cc(C(C)C)c(O)cc2O)c1-c1ccc(CN2CCOCC2)cc1 [Luminespib] (partner 0.01 µM)
# How it was run: as §1
# [4] = compound: Cc1ccc(NC(=O)c2ccc(CN3CCN(C)CC3)cc2)cc1Nc1nc(-c2cccnc2)cs1 [Masitinib] + Cc1nc(NC(=O)N2CCC[C@H]2C(N)=O)sc1-c1ccnc(C(C)(C)C(F)(F)F)c1 [Alpelisib] (partner 2 µM)
# How it was run: as §1
Cell Line,relative viability ([1]; first compound 0.08 µM),relative viability ([1]; first compound 0.253 µM),relative viability ([1]; first compound 0.8 µM),relative viability ([1]; first compound 2.53 µM),relative viability ([1]; first compound 8 µM),relative viability ([2]; first compound 0.08 µM),relative viability ([2]; first compound 0.253 µM),relative viability ([2]; first compound 0.8 µM),relative viability ([2]; first compound 2.53 µM),relative viability ([2]; first compound 8 µM),relative viability ([3]; first compound 0.03162 µM),relative viability ([3]; first compound 0.1 µM),relative viability ([3]; first compound 0.3162 µM),relative viability ([3]; first compound 1 µM),relative viability ([4]; first compound 0.03162 µM),relative viability ([4]; first compound 0.1 µM),relative viability ([4]; first compound 0.3162 µM),relative viability ([4]; first compound 1 µM),relative viability ([3]; first compound 0.01 µM),relative viability ([4]; first compound 0.01 µM)
NCI-H1755,0.923,0.937,0.846,0.824,0.679,0.505,0.524,0.566,0.598,0.546,0.528,0.414,0.697,0.331,0.847,1.01,0.972,0.833,,
NCI-H1792,0.513,0.469,0.537,0.515,0.657,0.207,0.36,0.373,0.309,0.252,0.206,0.41,0.397,0.402,0.203,0.61,0.65,0.698,0.341,0.69
NCI-H1793,,0.521,0.523,0.438,0.402,0.255,0.293,0.387,0.408,0.316,0.166,0.182,0.162,0.567,0.683,0.878,0.82,0.636,0.165,0.846
NCI-H1915,0.747,0.791,0.84,0.779,0.811,0.38,0.352,0.371,0.372,0.372,0.815,,0.938,0.896,1.06,1.07,1.04,1.07,,
NCI-H1944,1.03,1.01,1.05,1.01,1.01,0.191,0.187,0.203,0.178,0.198,0.829,,0.576,0.697,0.78,0.925,0.699,0.84,,
NCI-H1975,1.16,1.13,0.879,0.895,0.726,0.359,0.362,0.383,0.326,0.296,0.287,0.22,0.156,0.124,0.622,0.684,0.602,0.604,0.246,0.62
NCI-H1993,0.724,0.718,0.818,0.775,0.793,0.445,0.601,0.547,0.529,0.48,0.791,0.701,0.7,0.766,,0.627,0.728,0.636,0.851,0.669
NCI-H2009,1.05,1.12,1.11,1.18,1.02,0.449,0.482,0.46,0.51,0.347,0.938,1.03,1,1.06,1.12,1.24,1.16,1.18,0.969,1.15
NCI-H2023,0.958,0.961,0.945,0.916,0.715,0.41,0.33,0.424,0.423,0.351,0.664,0.786,0.69,0.753,0.62,0.6,0.518,0.548,0.61,0.581
NCI-H2085,0.959,1.13,1.12,1.12,0.809,0.709,0.67,0.723,0.676,0.684,0.428,0.423,0.403,0.443,1,1.09,0.935,0.985,0.368,0.838
NCI-H2087,0.963,0.996,0.945,0.799,0.82,0.373,0.421,0.449,0.575,0.446,0.166,0.153,0.202,0.181,1.05,1.19,1.15,1.08,0.158,1.07
NCI-H2126,0.828,0.912,0.849,0.909,0.778,0.466,0.439,0.523,0.498,0.523,1,0.951,0.89,0.794,0.766,0.832,0.661,0.712,0.888,0.802
NCI-H2170,0.631,0.575,0.538,0.545,0.426,0.396,0.436,0.431,0.4,0.397,0.689,1.02,0.631,1.02,0.688,0.902,0.784,0.801,0.645,0.912
NCI-H2228,0.866,1.07,0.622,0.969,0.655,0.265,0.35,0.266,0.313,0.332,0.189,0.16,0.148,0.15,0.708,0.835,0.685,0.844,0.172,0.897
NCI-H2347,0.613,0.751,0.599,0.83,0.632,0.387,0.381,,0.397,0.419,0.299,0.41,0.556,0.326,1.14,1.01,1.13,1.05,0.758,0.981
NCI-H2405,0.732,0.802,0.655,0.883,0.673,0.344,0.352,0.347,0.411,0.434,0.64,0.692,0.521,0.571,0.945,0.896,0.737,0.802,0.606,0.838
